The source of these data is paper PMC11091879, “Inhibitors of the Thioesterase Activity of Mycobacterium tuberculosis Pks13 Discovered Using DNA-Encoded Chemical Library Screening” (ACS Infectious Diseases, 2024).

Structures are written as SMILES. ≈ marks a conversion by molar mass, not a printed value. Like-named read-outs stand apart in the source and are kept apart here.

One experiment addresses Pks13-TE (Mycobacterium tuberculosis, UniProt I6X8D2). The experiment in a line: biochemical. In kind it is binding.
A further experiment concerns WT H37Rv. The experiment in a line: microbe, parasite or virus in culture. In kind it is cell-based, Mycobacterium tuberculosis. As to conditions: for MIC: Mycobacterium tuberculosis, H37RV.
Experiment [1] has as its system pks13-TetON +ATc (Pks13-hypermorph). The class given is cell-based, Mycobacterium tuberculosis.
Experiment [2] deals with pks13-TetON -ATc (hypomorph). In kind it is cell-based, Mycobacterium tuberculosis.

Chain of Pks13-TE (I6X8D2 1451-1733 limits assumed): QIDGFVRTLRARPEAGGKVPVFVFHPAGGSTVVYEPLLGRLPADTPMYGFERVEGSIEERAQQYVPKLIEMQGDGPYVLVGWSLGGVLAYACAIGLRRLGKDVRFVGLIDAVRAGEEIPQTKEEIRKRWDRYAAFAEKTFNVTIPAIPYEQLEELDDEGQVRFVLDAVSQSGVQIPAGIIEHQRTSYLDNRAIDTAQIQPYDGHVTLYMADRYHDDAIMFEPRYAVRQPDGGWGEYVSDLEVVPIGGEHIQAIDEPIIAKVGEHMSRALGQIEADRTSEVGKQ

By IC50 is commonly meant the concentration that gives 50% inhibition. With `CCC(C)(C)c1ccc(S(=O)(=O)N[C@@H](Cc2ccccc2)[C@@H](O)Cc2nc(N(C)C)no2)cc1` [X20348], half-maximal inhibition against Pks13-TE (enzyme potency / IC50) (IC50) required 0.47 µM. Moreover, the MIC in the experiment with WT H37Rv (read-out: WT H37Rv MIC (uM)) is more than 250 µM.
For `Cc1cccc2cc(C(=O)N3CCN(C(=O)C4CCN(c5nccc(C(=O)NCc6ccccc6)n5)CC4)CC3)cnc12` [X21424], the IC50 on Pks13-TE (IC50 (uM)) was 0.39 µM. Also, in the experiment on WT H37Rv (read-out: WT H37Rv MIC (uM)), the MIC was 2.6 µM (≈ 1.5 µg/mL). For the same compound, in experiment [1], the “Hypermorph MIC fold shift (+ATc/WT)” value is on record as 5.8 fold. For the same compound, the “Hypomorph MIC fold shift (WT/-ATc)” value in experiment [2] is given as 3.0 fold.
As for `CNC(=O)c1cc(C)nc(N2CCC(C(=O)N3CCCN(C(=O)c4cnn5ccc(OC)cc45)CC3)CC2)n1` [X22280], the IC50 on Pks13-TE (read-out: IC50) is more than 10 µM. In addition, in the experiment on WT H37Rv (read-out: WT H37Rv MIC), the MIC was more than 125 µM.
For `COc1ccc(OC)c(-c2ncc(-c3cn(CCc4ccc(C(=O)N(C)C)cc4)nn3)cc2C)c1` [X21499], at Pks13-TE (IC50 (uM)), inhibition was half-maximal at 0.58 µM (IC50). For the same compound, in the experiment with WT H37Rv (read-out: WT H37Rv MIC (uM)), the MIC was found to be 18 µM (≈ 8.49 µg/mL). The “Hypomorph MIC fold shift (WT/-ATc)” value in experiment [2] is 1.6 fold.
As to `COc1ccc(OC)c(-n2ncc(-c3cn(CCc4ccc(C(=O)N(C)C)cc4)nn3)c2C)c1` [X21558], on Pks13-TE (read-out: IC50), the IC50 was more than 20 µM.
As to `Cn1ncc2cc(CCn3cc(-c4ccc(N5CC(F)(F)C5)nc4)nn3)ccc21` [X22317], the IC50 on Pks13-TE (read-out: IC50) is more than 10 µM. Moreover, the MIC with WT H37Rv (read-out: WT H37Rv MIC) is more than 125 µM.
Regarding `Cn1ncc2cc(CCn3cc(-c4ccc(OCc5ccccc5)nc4)nn3)ccc21` [X22346], the IC50 on Pks13-TE (read-out: IC50) is more than 10 µM. The “WT H37Rv MIC” value in the experiment with WT H37Rv is more than 125 µM.
For `COc1ccc(F)cc1-c1ccc(-c2cn(C3CN(c4ccc(C(=O)N(C)C)cc4)C3)nn2)cn1` [X23488], on Pks13-TE (read-out: IC50), the IC50 came to 0.62 µM.
Still for that read-out and setting: under `COc1ccc(OC)c(-c2ccc(-c3cn(C4CN(c5ccc6nn(C)cc6c5)C4)nn3)cn2)c1` [X23479] stands 0.46 µM.
With `Cc1ccc(F)cc1-c1ccc(-c2cn(CCc3ccc4c(cnn4C)c3)nn2)cn1` [X22309], the IC50 at Pks13-TE (read-out: IC50) came to 0.62 µM. For the same compound, the MIC in the experiment on WT H37Rv (read-out: WT H37Rv MIC) is more than 125 µM.
In the case of `COc1ccc(F)cc1-c1ccc(-c2cn(Cc3ccncc3)nn2)cn1` [X22307], the IC50 on Pks13-TE (read-out: IC50) is more than 10 µM. The “WT H37Rv MIC” value in the experiment with WT H37Rv was more than 125 µM.
As for `COc1ccc(OC)c(-c2ccc(-n3cc(C4CN(c5ccc(C(=O)N(C)C)cc5)C4)nn3)cn2)c1` [X23436], the IC50 at Pks13-TE (read-out: IC50) came out at 0.37 µM.
As for `Cn1ncc2cc(CCn3cc(-c4ccc(-c5cc(C(F)(F)F)ccc5F)nc4)nn3)ccc21` [X22311], on Pks13-TE (read-out: IC50), the IC50 amounted to 0.77 µM. Moreover, the MIC in the experiment on WT H37Rv (read-out: WT H37Rv MIC) is more than 125 µM.
For `COc1ccn2nc(C(=O)N3CCN(C(=O)C4CCN(c5nc(C)cc(C(=O)N6CCCC6)n5)CC4)CC3)cc2c1` [X22276], in that order: more than 10 µM and more than 125 µM.
Taken in the same sequence, the figures for `CN(C)C(=O)c1ccc(CCn2cc(-c3ccc(-c4ccccc4C(F)(F)F)nc3)nn2)cc1` [X21502] were 0.59 µM and more than 125 µM.
In turn, `Cc1ccccc1-c1ncc(-c2cn(CCc3ccc(C(=O)N(C)C)cc3)nn2)s1` [X21546] had an IC50 at Pks13-TE (IC50 (uM)) of 0.37 µM. Also, in the experiment with WT H37Rv (read-out: WT H37Rv MIC (uM)), the MIC was determined as 18 µM (≈ 7.52 µg/mL). Further, in experiment [2], the “Hypomorph MIC fold shift (WT/-ATc)” value came out at 1.9 fold.
Consider `COc1ccn2nc(C(=O)N3CCN(C(=O)C4CCN(c5nc(C)cc(C(F)(F)F)n5)CC4)CC3)cc2c1` [X22279], for which the IC50 on Pks13-TE (read-out: IC50) was more than 10 µM. For the same compound, the MIC in the experiment on WT H37Rv (read-out: WT H37Rv MIC) was more than 125 µM.
`COc1ccc(OC)c(-c2ncc(-c3cn(CCc4ccc(C(=O)N(C)C)cc4)nn3)cn2)c1` [X21435]: on Pks13-TE (IC50 (uM)), half-maximal inhibition (IC50) was put at 0.58 µM. For the same compound, the MIC in the experiment on WT H37Rv (read-out: WT H37Rv MIC (uM)) was more than 125 µM.
As for `COc1ccc(OC)c(-c2ccc(-c3nc(N(C)Cc4ccc(C(=O)N(C)C)cc4)no3)cn2)c1` [X21475], the IC50 on Pks13-TE (read-out: IC50) was more than 20 µM.
`Cc1c(-c2cn(CCc3ccc(C(=O)N(C)C)cc3)nn2)cnn1-c1ccccc1F` [X21774]: at Pks13-TE (read-out: IC50), the IC50 is more than 10 µM. The MIC in the experiment with WT H37Rv (read-out: WT H37Rv MIC) was more than 125 µM.
Take `Cc1cccc2cc(-c3cn(CCc4ccc(C(=O)N(C)C)cc4)nn3)cnc12` [X21497]: at Pks13-TE (read-out: IC50), the IC50 was more than 10 µM. For the same compound, in the experiment with WT H37Rv, the “WT H37Rv MIC” value was more than 125 µM.
As for `COc1ccc(OC)c(-c2ccc(-c3cn(C4CCN(c5ccc(C(=O)N(C)C)cc5)C4)nn3)cn2)c1` (stereo not drawn) [X23546], the IC50 on Pks13-TE (read-out: IC50) came out at 0.65 µM.
